These results are taken from patent US10799507B2, “5-(7H-pyrrolo[2,3-d]pyrimidin-4-yl)-5-azaspiro[2.5]octane-8-carboxylic acid derivatives as novel JAK kinase inhibitors” (LEO Pharma A/S, priority 2017, dated 2020).

In one data set the target is TYK2 (Homo sapiens (Human), UniProt P29597). Nature of the data set: JAK kinase assay (HTRF), TYK2. The data set is classed as biochemical. As to conditions: catalytic domain, ATP at Km (13 μM). In a few lines:
(§1)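 Catalytic-domain human kinases, GST-tagged TYK2 (aa 871-1187) and His-tagged JAK3, phosphorylate 1 μM TK Substrate-Biotin for 20-30 min at RT in 50 mM Hepes pH 7.0, 5 mM MgCl2, ATP at Km (TYK2 13 μM with 50 nM SEB; JAK3 2 μM). Phosphorylation detected by HTRF.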
(Time-resolved FRET reads energy transfer from a long-lived donor to a nearby acceptor.)

Data set [1] in a line: in vitro metabolic stability in human liver microsomes. The data set is classed as in vitro ADME. As to conditions: 0.5 μM compound, 0.5 mg/mL microsomes, NADPH, 40 min, 37° C.; for CLint scaled at 0.5 μM: human, liver microsomes, read-out: Human liver microsome Clapp (apparent intrinsic clearance). In a few lines: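 Compounds at 0.5 μM incubated in duplicate with human liver microsomes (0.5 mg/mL), phosphate buffer and NADPH at 37 °C for 40 min, sampled at 0, 5, 10, 20, 40 min into cold acetonitrile. LC-TOF-MS depletion gave elimination rate constant, from which apparent intrinsic clearance (Clapp) was calculated.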
(In general: Liver microsomes are vesicles of endoplasmic reticulum, rich in cytochrome P450 enzymes.)

The target of a further data set is JAK2 (Homo sapiens (Human), UniProt O60674). Nature of the data set: JAK kinase assay (HTRF), JAK2. The format is biochemical. As to conditions: catalytic domain, ATP at Km (4 μM). The method in brief: (§2)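 Catalytic-domain human JAK1 (GST-tagged, aa 850-1154) or His-tagged JAK2, baculovirus-expressed, phosphorylated 1 µM biotinylated TK peptide at Km ATP (JAK1 7 µM, 10 mM MgCl2, 50 nM SEB; JAK2 4 µM, 5 mM MgCl2) in pH 7.0 Hepes, 20-30 min RT. EDTA stop; overnight streptavidin-XL665/cryptate HTRF read.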
Sequence of JAK2 (O60674 849-1124): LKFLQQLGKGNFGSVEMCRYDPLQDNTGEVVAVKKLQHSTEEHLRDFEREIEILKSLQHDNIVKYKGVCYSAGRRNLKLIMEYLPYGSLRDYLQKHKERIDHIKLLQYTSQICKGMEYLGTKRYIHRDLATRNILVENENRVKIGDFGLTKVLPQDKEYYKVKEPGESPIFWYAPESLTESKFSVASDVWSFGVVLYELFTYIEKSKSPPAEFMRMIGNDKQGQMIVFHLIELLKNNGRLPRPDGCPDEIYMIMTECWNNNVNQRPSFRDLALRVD

The target of a further data set is JAK1 (Homo sapiens (Human), UniProt P23458). Nature of the data set: JAK kinase assay (HTRF), JAK1. The data set is classed as biochemical. To be noted: catalytic domain, ATP at Km (7 μM). The method in brief: as §2
Sequence of JAK1 (P23458 850-1154): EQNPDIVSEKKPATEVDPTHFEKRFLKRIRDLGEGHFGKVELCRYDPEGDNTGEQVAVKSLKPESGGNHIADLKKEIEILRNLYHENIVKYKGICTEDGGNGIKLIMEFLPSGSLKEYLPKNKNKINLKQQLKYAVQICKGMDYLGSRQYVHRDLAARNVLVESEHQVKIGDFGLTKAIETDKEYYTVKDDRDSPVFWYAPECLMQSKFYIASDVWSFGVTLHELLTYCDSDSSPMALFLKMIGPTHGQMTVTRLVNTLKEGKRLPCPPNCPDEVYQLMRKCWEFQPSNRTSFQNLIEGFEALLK
The target in a further data set is JAK3 (Homo sapiens (Human), UniProt P52333). Nature of the data set: JAK kinase assay (HTRF), JAK3. The format is biochemical. To be noted: catalytic domain, ATP at Km (2 μM). The method in brief: as §1
Sequence of JAK3 (P52333 822-1111): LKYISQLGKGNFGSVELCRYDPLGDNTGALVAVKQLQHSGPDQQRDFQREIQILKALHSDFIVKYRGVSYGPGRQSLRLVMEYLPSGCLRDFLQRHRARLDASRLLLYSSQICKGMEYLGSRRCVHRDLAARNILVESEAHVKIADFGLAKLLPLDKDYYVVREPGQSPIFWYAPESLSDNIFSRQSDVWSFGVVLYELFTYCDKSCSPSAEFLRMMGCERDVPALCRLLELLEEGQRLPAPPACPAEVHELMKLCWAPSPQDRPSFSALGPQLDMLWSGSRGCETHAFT

Sequence of TYK2 (P29597 871-1187): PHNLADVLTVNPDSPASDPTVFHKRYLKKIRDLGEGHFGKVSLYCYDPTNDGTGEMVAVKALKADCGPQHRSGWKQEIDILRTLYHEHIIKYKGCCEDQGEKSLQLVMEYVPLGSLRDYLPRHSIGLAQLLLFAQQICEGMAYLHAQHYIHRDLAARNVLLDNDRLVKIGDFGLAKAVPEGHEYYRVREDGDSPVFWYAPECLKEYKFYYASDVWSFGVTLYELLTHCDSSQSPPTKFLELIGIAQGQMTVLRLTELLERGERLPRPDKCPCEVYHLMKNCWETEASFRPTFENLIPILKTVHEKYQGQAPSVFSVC

One may read the EC50 as the concentration giving half of the maximal effect. A higher EC50 goes with a less potent agent. For the compound `O=C(NCC1(O)CCCC1)[C@H]1CCN(c2ncnc3[nH]ccc23)CC12CC2` [Example 49, (8S)-N-[(1-hydroxycyclopentyl)methyl]-5-(7H-pyrrolo[2,3-d]pyrimidin-4-yl)-5-azaspiro[2.5]octane-8-carboxamide], the half-maximal effective concentration (EC50) turned out to be 43.4 nM on TYK2, 15.1 nM at JAK2, 3.4 nM on JAK1 and 26.1 nM at JAK3. The CLint scaled at 0.5 μM in data set [1] turned out to be 35 mL/min/kg.
With `O=C(NCC1(CO)CCCC1)C1CCN(c2ncnc3[nH]ccc23)CC12CC2` (centres unmarked) [Example 58, N-[[1-(hydroxymethyl)cyclopentyl]methyl]-5-(7H-pyrrolo[2,3-d]pyrimidin-4-yl)-5-azaspiro[2.5]octane-8-carboxamide], the EC50 worked out at 142 nM at TYK2, 13 nM on JAK2, 4.1 nM on JAK1 and 30.3 nM at JAK3. Further, the CLint scaled at 0.5 μM in data set [1] is 143 mL/min/kg.
On the same counts, the results for `C[C@H](NC(=O)[C@H]1CCN(c2ncnc3[nH]ccc23)CC12CC2)[C@@H](O)c1ccc(C#N)cc1` [Example 43, (8S)-N-[(1S,2S)-2-(4-cyanophenyl)-2-hydroxy-1-methyl-ethyl]-5-(7H-pyrrolo[2,3-d]pyrimidin-4-yl)-5-azaspiro[2.5]octane-8-carboxamide] are 131 nM, 5.2 nM, 2.8 nM, 8.8 nM and 166 mL/min/kg.
On the same counts, the results for `N#Cc1ccc([C@@H](O)CNC(=O)[C@H]2CCN(c3ncnc4[nH]ccc34)CC23CC3)cc1` [Example 29, (8S)-N-[(2R)-2-(4-cyanophenyl)-2-hydroxy-ethyl]-5-(7H-pyrrolo[2,3-d]pyrimidin-4-yl)-5-azaspiro[2.5]octane-8-carboxamide] are 40.4 nM, 2.9 nM, 1.4 nM, 6.5 nM and 115 mL/min/kg.
On to `C[C@H](NC(=O)[C@H]1CCN(c2ncnc3[nH]ccc23)CC12CC2)[C@@H](O)c1ccc(F)cn1` [Example 41, (8S)-N-[(1S,2R)-2-(5-fluoro-2-pyridyl)-2-hydroxy-1-methyl-ethyl]-5-(7H-pyrrolo[2,3-d]pyrimidin-4-yl)-5-azaspiro[2.5]octane-8-carboxamide], for which the EC50 on TYK2 came to 33.5 nM; at JAK2 it was 5 nM; at JAK1 it was 2.5 nM; at JAK3, 48.9 nM. Further, the CLint scaled at 0.5 μM in data set [1] is 166 mL/min/kg.
On the same counts, the results for `C[C@H](NC(=O)[C@H]1CCN(c2ncnc3[nH]ccc23)CC12CC2)[C@@H](O)C1CCCCC1` [Example 3, (8S)-N-[(1S,2S)-2-cyclohexyl-2-hydroxy-1-methyl-ethyl]-5-(7H-pyrrolo[2,3-d]pyrimidin-4-yl)-5-azaspiro[2.5]octane-8-carboxamide] are 6.2 nM, 1.1 nM, 0.5 nM, 3.4 nM and over 200 mL/min/kg.
On the same counts, the results for `N#CCC1(COC(=O)C2CCN(c3ncnc4[nH]ccc34)CC23CC3)CC1` (centres unmarked) [Example 164, [1-(cyanomethyl)cyclopropyl]methyl 5-(7H-pyrrolo[2,3-d]pyrimidin-4-yl)-5-azaspiro[2.5]octane-8-carboxylate] are 70 nM, 5 nM, 4 nM, 19 nM and over 200 mL/min/kg.
The like results for `N#Cc1ccc([C@@H](O)CNC(=O)[C@H]2CCN(c3ncnc4[nH]ccc34)CC23CC3)nc1` [Example 36, (8S)-N-[(2S)-2-(5-cyano-2-pyridyl)-2-hydroxy-ethyl]-5-(7H-pyrrolo[2,3-d]pyrimidin-4-yl)-5-azaspiro[2.5]octane-8-carboxamide] were, in that order, 70.5 nM, 8.7 nM, 2 nM, 25.2 nM and 72 mL/min/kg.
`Cc1cc([C@H](CO)NC(=O)[C@H]2CCN(c3ncnc4[nH]ccc34)CC23CC3)ccc1C#N` [Example 54, (8S)-N-[(1R)-1-(4-cyano-3-methyl-phenyl)-2-hydroxy-ethyl]-5-(7H-pyrrolo[2,3-d]pyrimidin-4-yl)-5-azaspiro[2.5]octane-8-carboxamide]: the EC50 at TYK2 was found to be 135 nM; on JAK2, 13.5 nM; at JAK1, 3.6 nM; at JAK3 it was 33 nM. For the same compound, the CLint scaled at 0.5 μM in data set [1] was determined as 142 mL/min/kg.
With `O=C(OCC1CC(F)(F)C1)[C@@H]1CCN(c2ncnc3[nH]ccc23)CC12CC2` [Example 155, (3,3-difluorocyclobutyl)methyl (8R)-5-(7H-pyrrolo[2,3-d]pyrimidin-4-yl)-5-azaspiro[2.5]octane-8-carboxylate], the EC50 on TYK2 is 1280 nM; at JAK2, 58 nM; at JAK1 it was 30 nM; on JAK3 it was 144 nM. The CLint scaled at 0.5 μM in data set [1] was over 200 mL/min/kg.
As to `O=C(NCc1ccccc1)C1CCN(c2ncnc3[nH]ccc23)CC12CC2` (centres unmarked) [Example 95, N-benzyl-5-(7H-pyrrolo[2,3-d]pyrimidin-4-yl)-5-azaspiro[2.5]octane-8-carboxamide], the half-maximal effective concentration (EC50) at TYK2 is 502 nM; on JAK2, 17.9 nM; at JAK1, 8.6 nM; on JAK3, 31.6 nM. Also, the CLint scaled at 0.5 μM in data set [1] is 135 mL/min/kg.
On to `N#Cc1ccc(C(O)CNC(=O)C2CCN(c3ncnc4[nH]ccc34)CC23CC3)cc1` (centres unmarked) [Example 39, N-[2-(4-cyanophenyl)-2-hydroxy-ethyl]-5-(7H-pyrrolo[2,3-d]pyrimidin-4-yl)-5-azaspiro[2.5]octane-8-carboxamide], for which the EC50 at TYK2 is 75.4 nM; at JAK2, 4.8 nM; at JAK1 it was 2.4 nM; on JAK3 it was 11.5 nM. Also, the CLint scaled at 0.5 μM in data set [1] turned out to be 186 mL/min/kg.
For the compound `N#Cc1ccc([C@@H](CO)NC(=O)C2CCN(c3ncnc4[nH]ccc34)CC23CC3)cc1` (stereo partly drawn) [Example 94, N-[(1S)-1-(4-cyanophenyl)-2-hydroxy-ethyl]-5-(7H-pyrrolo[2,3-d]pyrimidin-4-yl)-5-azaspiro[2.5]octane-8-carboxamide], the concentration giving a half-maximal response (EC50) on TYK2 was 967 nM; at JAK2 it was 53.7 nM; at JAK1 it was 8.6 nM; at JAK3, 91.1 nM. In addition, the CLint scaled at 0.5 μM in data set [1] worked out at 23 mL/min/kg.
On to `O=C(NC[C@@H](O)c1ccccc1)C1CCN(c2ncnc3[nH]ccc23)CC12CC2` (stereo partly drawn) [Example 63, N-[(2S)-2-hydroxy-2-phenyl-ethyl]-5-(7H-pyrrolo[2,3-d]pyrimidin-4-yl)-5-azaspiro[2.5]octane-8-carboxamide], for which the EC50 at TYK2 amounted to 147 nM; on JAK2, 15.9 nM; at JAK1, 4.5 nM; at JAK3, 58.5 nM. Moreover, the CLint scaled at 0.5 μM in data set [1] is over 200 mL/min/kg.
The like results for `O=C(NCC1CC(F)(F)C1)[C@H]1CCN(c2ncnc3[nH]ccc23)CC12CC2` [Example 62, (8S)-N-[(3,3-difluorocyclobutyl)methyl]-5-(7H-pyrrolo[2,3-d]pyrimidin-4-yl)-5-azaspiro[2.5]octane-8-carboxamide] were, in that order, 47.5 nM, 7 nM, 4.5 nM, 15.7 nM and 48 mL/min/kg.
For the compound `O=C(NC[C@@H](O)C1CCCC1)[C@H]1CCN(c2ncnc3[nH]ccc23)CC12CC2` [Example 1, (8S)-N-[(2S)-2-cyclopentyl-2-hydroxy-ethyl]-5-(7H-pyrrolo[2,3-d]pyrimidin-4-yl)-5-azaspiro[2.5]octane-8-carboxamide], the EC50 at TYK2 was determined as 3.6 nM; at JAK2, 1 nM; at JAK1, 0.5 nM; at JAK3, 3.3 nM. In data set [1], the “Human liver microsome Clapp (apparent intrinsic clearance)” value is 190 mL/min/kg.
